Data reported in patent US20080051454A1, “Compositions and methods for transient receptor potential vanilloid (TRPV) channel mediated treatments” (The Board of Trustees Operating Michigan State University, priority 2006, published 2008).

What was measured:
[1] = test system: Wistar rats fed a normal-salt (NS) or high-salt (HS) diet for 10 days; assay: MAP and HR responses to i.v. bolus NADA with or without antagonists in conscious rats; type: in vivo, rat; details: for prolonged depressor effect of NADA (decrease in MAP) after antagonist: NADA 4 mg/kg after CAPZ 3 mg/kg, CGRP8-37 infusion or SR141716A 3 mg/kg
From the text: In brief: Wistar rats were fed a normal (NS, 0.4%) or high (HS, 4%) sodium diet for 10 days, then artery and vein were cannulated for measurement of mean arterial pressure (MAP) or for injection of drugs and collection of plasma.
Animal Preparation: Male Wistar rats (7 weeks old, Charles River Laboratory, Wilmington, Mass.) were housed in the animal facility for 1 week before the experiment. Rats were grouped randomly and pair-fed a NS (0.4% of Na^+ by weight) or HS (4% of Na^+ by weight) diet for 10 days. The rat chow was purchased from Harlan Teklad Diets (Madison, Wis.). Drinking water was available ad libitum throughout the experiment. All protocols were in accordance with the National Institutes of Health Guidelines for the Care and Use of Laboratory Animals.
Surgical Preparation Rats were anesthetized with ketamine and xylazine (80 and 4 mg/kg intraperitoneally, respectively) for cannulation or with urethane (1.5 g/kg intraperitoneally) for capsaicin administration. The left jugular vein, carotid and femoral artery were cannulated under anesthesia for injection of drugs or monitoring of mean arterial pressure (MAP) and heart rate (HR).
Three hours after surgery, baseline MAP and its response to the above-mentioned drugs were obtained with the rats fully awake and unrestrained [Wang et al., Am J Physiol 2004; 287:H1868-H[874]. NADA was injected in increasing doses (1, 4, and 10 mg/kg intravenous bolus) in 3 subgroups of rats (each group for each dose). To determine the role of TRPV1 and CB 1 receptor in NADA-induced hypotension, NADA (4 mg/kg) was injected 10 minutes or 20 minutes after intravenous injection of CAPZ (3 mg/kg) or SR141716A (3 mg/kg), respectively.
To examine the effect of CGRP8-37 on NADA-induced hypotension, CGRP8-37 was intravenously administered at the rate of 1 mg/kg/min for 2 minutes followed by injection at the rate of 0.5 mg/kg/min for 15 minutes. NADA (4 mg/kg) was injected 1 minute after CGRPs-37 administration. The effectiveness of the dose and time frame for CGRP8-37 injection was verified by blockade of the hypotensive response to capsaicin (30 μg/kg) (n=5).

WT hearts = assay: Preconditioning (PC) protection against I/R in Langendorff hearts with receptor antagonists, wild type; set-up: species or system mouse
Experimental: Male TRPV1 gene knockout (TRPV1-/-) strain B6.129S[…][…]^tm1Jul and matching control wild type (WT) strain C57BL/6J mice were used (Jackson Laboratory, Bar Harbor, Me.). Mice were heparinized (500 U/kg i.p.) and anesthetized with pentobarbital sodium (50 mg/kg i.p.). […] The distal end of the catheter was connected to a […] Performance Analyzer via a pressure transducer. Coronary flow (CF) was continuously measured using an ultrasonic flow probe placed in the aortic perfusion line. Hearts were paced at 400 bpm except during ischemic PC and sustained global ischemia to avoid inducing excessive ventricular tachyarrhythmia during reperfusion, and pacing was reinitiated 2 minutes after reperfusion. Left ventricular developed pressure (LVDP, peak systolic minuses LVEDP) and LV peak positive […]) during isovolumic contraction were used as indices of LV systolic function; LVEDP and the peak negative […] used as indices of LV diastolic function. […] Non-preconditioned hearts were time-matched perfused with the same duration as that of preconditioned hearts. Group 1: Controls. As normal controls (nonischemic), WT and TRPV1-/- hearts were perfused for 130 minutes. For I/R controls, WT and TRPV1-/- hearts were first perfused with Krebs-Henseleit buffer for 55 min (time-matched perfusion of the equilibration period plus the PC period), and subsequently subjected to 30 minutes of no-flow normothermic global ischemia followed by 40-minutes of reperfusion. Group 2: PC. […] The hearts were subjected to 30 minutes of no-flow normothermic global ischemia followed by 40-minutes of reperfusion as that of I/R control groups. Group 3: PC plus capsazepine (CAPZ). […] Two additional concentrations of CAPZ, 10^-6M and 10^-8 M, were used in WT hearts. An additional drug control was added. After a 20-minute equilibration period, WT hearts were perfused with CAPZ (10^-7 M) for 10 minutes without PC, followed by perfusion with Krebs-Henseleit buffer for 25 minutes (time-matched perfusion of the PC period) and then subjected to I/R. Group 4: […] Two additional concentrations of CGRP8-37, 10^-5 M and 10^-7 M, were used in WT hearts. An additional drug control of CGRP8-37 was added as that of the CAPZ control group. Group 5: PC plus RP67580. To determine the role of endogenous SP during PC, hearts from WT and TRPV1-/-mice were perfused as that of CAPZ with RP67580 (10^-7 M), a selective neurokinin-1 (NK1) receptor antagonist. Two additional concentrations of RP67580, 10^-6 M and 10^-8 M, were used in WT hearts. An additional drug control of RP67580 was added as that of the CAPZ control group.

Oc1cc2c(cc1O)CN(C(=S)NCCc1ccc(Cl)cc1)CCC2 [CAPZ, N-[2-(4-Chlorophenyl)ethyl]-1,3,4,5-tetrahydro-7,8-dihydroxy-2H-2-benzazepine-2-carbothioamide]
effect of antagonist on NADA-induced depressor effect ([1]; NADA 4 mg/kg): abolished
prolonged depressor effect of NADA (decrease in MAP) after antagonist ([1]; HS diet): 7±2 mmHg
prolonged depressor effect of NADA (decrease in MAP) after antagonist ([1]; NS diet): 6±2 mmHg
effect on cardiac function in WT hearts without I/R (WT hearts): no effect on cardiac function
effect on PC-induced cardiac protection (LVEDP, LVDP, CF, +dP/dt, −dP/dt) in WT hearts (WT hearts; CAPZ 10^−7 M, CGRP8-37 10^−6 M, RP67580 10^−7 M): abolished PC induced protection
